Experimental findings from patent US20240150370A1, “BICYCLIC PYRIDINE DERIVATIVE” (Sumitomo Pharma Co., Ltd., priority 0001, published 2024) are described below.

This assay addresses human TAAR1 receptor (Homo sapiens (Human), UniProt Q96RJ0). Kind of assay: Evaluation of agonist activity on human TAAR1 receptor (cAMP assay). Format: cell-based. The conditions noted are these: cAMP in human TAAR1-expressing CHO cells, relative to 100 μM tyramine; for activation at 0.1 µM / activation at 1 µM / activation at 10 µM: CHO, 0.5 h, read-out: TAAR1 agonist activity at each concentration (%). The protocol: TAAR1 is a G protein-coupled receptor that binds to G proteins (Gas), and activation of the TAAR1 receptor by agonists induces an increase in intracellular cAMP levels. Therefore, the agonist activity of the sample on the human TAAR1 receptor was evaluated using the cAMP assay method.
cAMP Hunter™ CHO-K1 TAAR1 Gs Cell Line, a cell expressing human TAAR1 receptor, was purchased. Human TAAR1-expressing CHO cells were seeded in a 96-well plate, and after culturing for 24 hours, a sample dissolved in DMSO was added and incubated at 37° C. for 30 minutes. A sample for cAMP measurement was prepared according to the cAMPHiRange kit protocol. The amount of cAMP produced by the sample was measured by time-resolved fluorescence using EnVision (excitation wavelength: 330 nm, fluorescence wavelength […]/665 nm).
Sample %=100×{(Csamp)−(Cblank)}/{(Ctyramine)−(Cblank)} • Csamp: count of sample, Ctyramine: count of 100 μM tyramine, Cblank: count of blank

Each structure is given as a SMILES string. Structures can show the parent of a compound that is named as a salt.

Sequence of human TAAR1 receptor (Q96RJ0 whole entry, the tested form may be a part): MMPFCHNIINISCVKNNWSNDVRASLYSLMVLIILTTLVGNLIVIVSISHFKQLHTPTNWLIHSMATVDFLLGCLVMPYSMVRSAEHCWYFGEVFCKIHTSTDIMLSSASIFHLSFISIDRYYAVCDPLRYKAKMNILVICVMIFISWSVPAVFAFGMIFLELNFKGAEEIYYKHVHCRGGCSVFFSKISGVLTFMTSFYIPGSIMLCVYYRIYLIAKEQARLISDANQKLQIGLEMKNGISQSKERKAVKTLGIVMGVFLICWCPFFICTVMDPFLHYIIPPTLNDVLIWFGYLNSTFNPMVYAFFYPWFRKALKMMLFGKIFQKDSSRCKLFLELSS

Take `NCC1CCc2c(OC3CCC3)ccnc21` (racemic) [Example 91, rac-1-[4-(cyclobutyloxy)-6,7-dihydro-5H-cyclopenta[b]pyridin-7-yl]methanamine dihydrochloride]: the activation at 0.1 µM (100 nM) was determined as 0%. Also, the activation at 1 µM (1000 nM) was 14%. The activation at 10 µM (10000 nM) is 49%.
Taken in the same sequence, the figures for `C=CCNC[C@H]1c2ncccc2O[C@@H]1C` [Example 71] were 0%, 6% and 29%.
Taken in the same sequence, the figures for `CCNC[C@H]1c2ncccc2O[C@@H]1C` [Example 74] were 7%, 46% and 92%.
Taken in the same sequence, the figures for `NCC1CCOc2ccc(C(F)(F)F)nc21` (stereo not drawn) [Example 67] were 1%, 10% and 39%.
As for `C[C@@H]1Oc2cccnc2[C@@H]1CN` [Example 20], the activation at 0.1 µM (100 nM) amounted to 33%. For the same compound, where the note is “1000 nM”, the activation at 1 µM was 88%. Moreover, for the setting “10000 nM”, the activation at 10 µM was 107%.
For `NCC1c2nc(Cl)ccc2OC12CC2` (stereo not drawn) [Example 81] the same measures were 48%, 86% and 95%.
Taken in the same sequence, the figures for `COCCNC[C@H]1c2ncccc2O[C@@H]1C` [Example 73] were 0%, 9% and 40%.
Taken in the same sequence, the figures for `CC[C@@H]1C[C@H](CN)c2ncccc2O1` (racemic) [Example 60] were 7%, 40% and 82%.
As to `C[C@@H]1COc2cccnc2[C@@H]1CN` (stereo in doubt) [Example 4, rel-1-[(3S,4S)-3-methyl-3,4-dihydro-2H-pyrano[3,2-b]pyridin-4-yl]methanamine dihydrochloride], the activation at 0.1 µM (100 nM) was determined as 17%. The activation at 1 µM (1000 nM) came to 55%. Moreover, the activation at 10 µM (10000 nM) is 67%.
Take `CNCC1CC(C)c2cccnc21` (stereo not drawn) [Example 78]: the activation at 0.1 µM (100 nM) worked out at 0%. Besides, under “1000 nM”, the activation at 1 µM stood at 5%. The activation at 10 µM (10000 nM) stood at 27%.
In the case of `NCC1CCNc2cccnc21` (stereo not drawn) [Example 68], the activation at 0.1 µM (100 nM) was found to be 3%. Besides, the activation at 1 µM (1000 nM) turned out to be 23%. For the setting “10000 nM”, the activation at 10 µM worked out at 68%.
Taken in the same sequence, the figures for `Cc1ccc2c(n1)[C@@H](CN)C(C)(C)O2` (single isomer, unassigned) [Example 104, dihydrochloride] were 0%, 5% and 31%.
Taken in the same sequence, the figures for `CCCNC[C@H]1c2ncccc2O[C@@H]1C` [Example 72] were 0%, 4% and 23%.
With `C[C@H]1[C@H](C)Oc2cccnc2[C@H]1CN` (racemic) [Example 64], the activation at 0.1 µM (100 nM) came to 0%. Also, the activation at 1 µM (1000 nM) turned out to be 7%. Also, the activation at 10 µM (10000 nM) was 40%.
With `NCC1CCc2c(Cl)ccnc21` (stereo not drawn) [Example 75], the activation at 0.1 µM (100 nM) came to 0%. Moreover, the activation at 1 µM (1000 nM) was 26%. The activation at 10 µM (10000 nM) stood at 75%.
Taken in the same sequence, the figures for `C[C@@H]1C[C@H](CN)c2ncc(F)cc2O1` [Example 52] were 1%, 8% and 48%.
For `CC1(C)Oc2ccc(F)nc2C1CN` (racemic) [Example 106, rac-1-(5-fluoro-2,2-dimethyl-2,3-dihydrofuro[3,2-b]pyridin-3-yl)methanamine dihydrobromide] the same measures were 38%, 70% and 78%.
With `Cc1ccc(-c2ccnc3c2CCCC3CN)cc1` (racemic) [Example 89, rac-1-[4-(4-methylphenyl)-5,6,7,8-tetrahydroquinolin-8-yl]methanamine dihydrochloride], the activation at 0.1 µM (100 nM) is 0%. Also, the activation at 1 µM (1000 nM) came out at 23%. Further, the activation at 10 µM (10000 nM) was determined as 48%.
Taken in the same sequence, the figures for `NC[C@@H]1c2nc(F)ccc2OC12CC2` (single isomer, unassigned) [Example 102, rel-1-[(3′R)-5′-fluoro-3′H-spiro[cyclopropane-1,2′-furo[3,2-b]pyridine]-3′-yl]methanamine dihydrobromide] were 1%, 18% and 59%.
For `CC[C@@H]1C[C@@H](CN)c2ncccc2O1` (racemic) [Example 61], the activation at 0.1 µM (100 nM) was determined as 2%. Besides, under “1000 nM”, the activation at 1 µM is 22%. Also, the activation at 10 µM (10000 nM) is 66%.
For `C[C@H]1Oc2cc(C(F)(F)F)cnc2[C@@H]1CN` [Example 31] the same measures were 1%, 3% and 12%.
Turning to `Cc1ccc2c(n1)[C@@H](CN)C[C@@H](C)O2` [Example 17], the activation at 0.1 µM (100 nM) was found to be 0%. Further, the activation at 1 µM (1000 nM) is 4%. Further, the activation at 10 µM (10000 nM) was 25%.
Regarding `C[C@H]1Oc2cccnc2[C@H]1CN` (racemic) [Example 36, rac-1-[(2R,3R)-2-methyl-2,3-dihydrofuro[3,2-b]pyridin-3-yl]methanamine dihydrochloride], where the note is “100 nM”, the activation at 0.1 µM was determined as 0%. In addition, the activation at 1 µM (1000 nM) was determined as 20%. The activation at 10 µM (10000 nM) was 67%.
For `CC[C@@H]1COc2cccnc2[C@@H]1CN` (racemic) [Example 87] the same measures were 4%, 25% and 63%.
Taken in the same sequence, the figures for `C[C@@H]1[C@H](C)Oc2cccnc2[C@H]1CN` (racemic) [Example 65] were 0%, 28% and 67%.
For `NC[C@@H]1c2ncc(Cl)cc2OC12CC2` (single isomer, unassigned) [Example 98, rel-1-[(3′R)-6′-chloro-3′H-spiro[cyclopropane-1,2′-furo[3,2-b]pyridine]-3′-yl]methanamine dihydrochloride] the same measures were 1%, 9% and 37%.
Take `CNC[C@@H]1C[C@@H](C)Oc2cccnc21` (racemic) [Example 7]: the activation at 0.1 µM (100 nM) is 17%. Also, where the note is “1000 nM”, the activation at 1 µM is 56%. The activation at 10 µM (10000 nM) came to 75%.
For `C[C@H](N)[C@H]1c2ncccc2O[C@@H]1C` [Example 55], the “TAAR1 agonist activity at each concentration (%)” value is listed as 31% (100 nM), 75% (1000 nM) and 87% (10000 nM).
`COC[C@H]1Oc2cccnc2[C@@H]1CN` (racemic) [Example 32]: under “100 nM”, the activation at 0.1 µM was 1%. For the same compound, under “1000 nM”, the activation at 1 µM was found to be 4%. Moreover, for the setting “10000 nM”, the activation at 10 µM turned out to be 22%.
Consider `CC[C@H]1COc2cccnc2[C@@H]1CN` (racemic) [Example 86], for which the activation at 0.1 µM (100 nM) stood at 1%. In addition, for the setting “1000 nM”, the activation at 1 µM turned out to be 8%. For the same compound, the activation at 10 µM (10000 nM) was determined as 40%.
Taken in the same sequence, the figures for `Cc1ccnc2c1OCCC2CN` (stereo not drawn) [Example 70] were 0%, 23% and 57%.
`C[C@H]1Oc2cc(Cl)cnc2[C@@H]1CN` (racemic) [Example 85]: the “TAAR1 agonist activity at each concentration (%)” value reads like this: (100 nM) 6%; (1000 nM) 37%; (10000 nM) 70%.
For the compound `CCOc1ccnc2c1CCC2CN` (stereo not drawn) [Example 76], under “100 nM”, the activation at 0.1 µM was 0%. Also, the activation at 1 µM (1000 nM) was 6%. The activation at 10 µM (10000 nM) is 33%.
On to `NC[C@H]1c2ncccc2O[C@@H]1CO` (racemic) [Example 26], for which, where the note is “100 nM”, the activation at 0.1 µM came to 0%. Also, the activation at 1 µM (1000 nM) came to 25%. The activation at 10 µM (10000 nM) is 73%.
In the case of `Cc1cnc2c(c1)O[C@H](C)[C@H]2CN` [Example 28], the activation at 0.1 µM (100 nM) came out at 7%. Also, the activation at 1 µM (1000 nM) came to 38%. Moreover, for the setting “10000 nM”, the activation at 10 µM is 71%.
Taken in the same sequence, the figures for `CC1CCC(CN)c2ncccc21` (stereo not drawn) [Example 77] were 0%, 11% and 47%.
With `C[C@H]1COc2cccnc2[C@@H]1CN` (racemic) [Example 1, rac-1-[(3R,4S)-3-methyl-3,4-dihydro-2H-pyrano[3,2-b]pyridin-4-yl]methanamine dihydrochloride], under “100 nM”, the activation at 0.1 µM was found to be 2%. Further, the activation at 1 µM (1000 nM) worked out at 18%. In addition, the activation at 10 µM (10000 nM) was determined as 54%.
For `C[C@H]1[C@H](CN)c2ncccc2O[C@@H]1C` (racemic) [Example 63] the same measures were 3%, 22% and 62%.
